ChEMBL document CHEMBL1201862, “PubChem BioAssay data set” (2004)
Calls of active or inactive are those of the source.

What was measured:
Trypsin = Trypsin (Sus scrofa, UniProt P00761); assay: trypsin protease activity blockade – biochemical, quenched peptide fluorescence, cherry-pick, selectivity assay for Rce1 protease inhibitor project, dose response (AID 488789)
CAAX prenyl protease 1 = CAAX prenyl protease 1 (Saccharomyces cerevisiae S288c, UniProt P47154); assay: yeast CAAX protease Ste24 inhibition – biochemical, S. cerevisiae, plate reader, cherry-pick, dose response (AID 488815)
CAAX prenyl protease 2 = target: T1, CAAX prenyl protease 2 (Homo sapiens, UniProt Q9Y256); assay: inhibition of Ras-converting CAAX protease Rce1 – biochemical, yeast membranes, quenched-peptide fluorescence, cherry-pick, dose response (AID 588849)
T1 sequence (Q9Y256 whole entry): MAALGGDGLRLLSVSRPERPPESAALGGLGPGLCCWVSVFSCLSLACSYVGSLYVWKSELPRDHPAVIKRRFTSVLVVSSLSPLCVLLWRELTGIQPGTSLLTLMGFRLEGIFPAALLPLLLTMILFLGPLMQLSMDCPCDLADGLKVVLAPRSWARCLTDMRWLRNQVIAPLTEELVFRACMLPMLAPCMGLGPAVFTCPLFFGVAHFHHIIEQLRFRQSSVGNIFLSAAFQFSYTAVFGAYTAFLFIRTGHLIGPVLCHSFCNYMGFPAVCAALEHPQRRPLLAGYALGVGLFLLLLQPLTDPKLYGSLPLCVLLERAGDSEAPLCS

Kallikrein-7 = Kallikrein-7 (Homo sapiens, UniProt P49862); assay: Fluorescence Intensity-based biochemical primary high throughput dose response assay to identify activators of kallikrein-7 (K7) zymogen.
Ion channel NompC = Ion channel NompC (Danio rerio, UniProt Q7T1G6); assay: Dose response cell-based high-throughput screening assay for agonists of the transient receptor potential channel N1 (TRPN1). [Related pubchem assays (depositor defined):AID1424, AID1448]; format: functional
Mucolipin-3 = target: T2, Mucolipin-3 (Homo sapiens, UniProt Q8TDD5); assay: Fluorescence counterscreen assay for […] agonists: dose response cell-based high-throughput screening assay to identify agonists of the transient receptor potential channel ML3 (TRPML3). [Related pubchem assays: 1424, 1448 ]; format: functional
T2 sequence (Q8TDD5 whole entry): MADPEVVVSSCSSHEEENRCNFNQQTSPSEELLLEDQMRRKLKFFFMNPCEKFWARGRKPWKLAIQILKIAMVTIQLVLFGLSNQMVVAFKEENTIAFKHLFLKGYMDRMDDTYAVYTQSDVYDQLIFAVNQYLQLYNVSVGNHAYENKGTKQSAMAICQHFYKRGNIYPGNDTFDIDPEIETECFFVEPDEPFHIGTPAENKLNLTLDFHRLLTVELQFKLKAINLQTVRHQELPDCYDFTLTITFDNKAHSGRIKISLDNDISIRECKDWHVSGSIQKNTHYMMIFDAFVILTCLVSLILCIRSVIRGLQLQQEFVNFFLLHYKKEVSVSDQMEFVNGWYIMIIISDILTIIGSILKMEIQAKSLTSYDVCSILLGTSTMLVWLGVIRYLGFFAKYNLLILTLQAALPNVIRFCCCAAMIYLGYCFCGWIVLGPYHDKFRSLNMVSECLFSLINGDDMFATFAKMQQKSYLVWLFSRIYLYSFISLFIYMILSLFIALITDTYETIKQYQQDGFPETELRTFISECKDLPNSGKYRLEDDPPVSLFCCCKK

Large T antigen = Large T antigen (Simian virus 40, UniProt P03070); format: functional, Betapolyomavirus macacae;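 also: Confirmatory-stage PubChem screen for compounds that inhibit SV40 T antigen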
Caspase-3 = target: T3, Caspase-3 (Homo sapiens, UniProt P42574); format: functional;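 also: Dose-response selectivity test against caspase-3 for candidate inhibitors of sentrin-specific proteases (SENPs)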
T3 sequence (P42574 whole entry): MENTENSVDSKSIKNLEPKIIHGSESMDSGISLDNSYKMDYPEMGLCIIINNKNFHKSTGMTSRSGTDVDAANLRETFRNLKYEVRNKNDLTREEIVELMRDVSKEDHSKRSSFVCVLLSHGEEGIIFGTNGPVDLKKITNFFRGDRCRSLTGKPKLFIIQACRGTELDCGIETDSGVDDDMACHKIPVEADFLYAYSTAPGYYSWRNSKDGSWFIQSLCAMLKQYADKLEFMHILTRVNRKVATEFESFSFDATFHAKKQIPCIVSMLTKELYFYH

[1] = target: T4, Sentrin-specific protease 7 (Homo sapiens, UniProt Q9BQF6); format: functional;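 also: Luminescence-based dose-response confirmation of ultra-high-throughput screening hits, measuring inhibition of SENP7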
T4 sequence (Q9BQF6 whole entry): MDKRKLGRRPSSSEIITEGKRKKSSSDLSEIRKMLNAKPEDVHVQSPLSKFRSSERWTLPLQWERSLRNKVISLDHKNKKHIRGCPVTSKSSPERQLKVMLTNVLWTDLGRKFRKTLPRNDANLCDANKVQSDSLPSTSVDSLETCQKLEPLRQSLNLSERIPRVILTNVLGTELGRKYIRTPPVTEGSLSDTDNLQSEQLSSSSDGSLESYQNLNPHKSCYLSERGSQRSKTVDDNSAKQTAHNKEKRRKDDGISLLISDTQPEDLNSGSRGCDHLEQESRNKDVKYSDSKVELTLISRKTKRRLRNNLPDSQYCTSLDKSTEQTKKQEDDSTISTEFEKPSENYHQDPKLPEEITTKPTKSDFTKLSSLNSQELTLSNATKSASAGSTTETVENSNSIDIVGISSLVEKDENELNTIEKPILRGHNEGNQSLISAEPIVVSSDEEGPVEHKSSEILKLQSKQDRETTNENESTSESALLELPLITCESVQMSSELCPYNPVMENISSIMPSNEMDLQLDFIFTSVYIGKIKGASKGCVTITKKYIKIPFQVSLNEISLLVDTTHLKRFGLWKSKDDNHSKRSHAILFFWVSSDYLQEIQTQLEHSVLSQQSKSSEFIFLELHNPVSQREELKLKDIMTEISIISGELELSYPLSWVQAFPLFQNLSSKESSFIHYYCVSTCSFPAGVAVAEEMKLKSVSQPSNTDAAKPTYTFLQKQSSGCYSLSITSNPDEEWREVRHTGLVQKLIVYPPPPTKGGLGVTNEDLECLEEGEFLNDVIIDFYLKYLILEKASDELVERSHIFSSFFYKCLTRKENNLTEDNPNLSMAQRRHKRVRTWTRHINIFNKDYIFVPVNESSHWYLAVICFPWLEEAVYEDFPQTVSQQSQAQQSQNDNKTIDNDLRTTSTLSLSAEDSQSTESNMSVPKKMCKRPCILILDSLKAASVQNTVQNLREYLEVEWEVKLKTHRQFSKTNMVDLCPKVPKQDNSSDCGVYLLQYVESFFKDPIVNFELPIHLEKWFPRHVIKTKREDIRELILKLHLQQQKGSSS

[2] = target: T5, Sentrin-specific protease 6 (Homo sapiens, UniProt Q9GZR1); format: functional;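 also: Luminescence-based dose-response confirmatory assay of SENP6 inhibition, following up an ultra-high-throughput screen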
T5 sequence (Q9GZR1 whole entry): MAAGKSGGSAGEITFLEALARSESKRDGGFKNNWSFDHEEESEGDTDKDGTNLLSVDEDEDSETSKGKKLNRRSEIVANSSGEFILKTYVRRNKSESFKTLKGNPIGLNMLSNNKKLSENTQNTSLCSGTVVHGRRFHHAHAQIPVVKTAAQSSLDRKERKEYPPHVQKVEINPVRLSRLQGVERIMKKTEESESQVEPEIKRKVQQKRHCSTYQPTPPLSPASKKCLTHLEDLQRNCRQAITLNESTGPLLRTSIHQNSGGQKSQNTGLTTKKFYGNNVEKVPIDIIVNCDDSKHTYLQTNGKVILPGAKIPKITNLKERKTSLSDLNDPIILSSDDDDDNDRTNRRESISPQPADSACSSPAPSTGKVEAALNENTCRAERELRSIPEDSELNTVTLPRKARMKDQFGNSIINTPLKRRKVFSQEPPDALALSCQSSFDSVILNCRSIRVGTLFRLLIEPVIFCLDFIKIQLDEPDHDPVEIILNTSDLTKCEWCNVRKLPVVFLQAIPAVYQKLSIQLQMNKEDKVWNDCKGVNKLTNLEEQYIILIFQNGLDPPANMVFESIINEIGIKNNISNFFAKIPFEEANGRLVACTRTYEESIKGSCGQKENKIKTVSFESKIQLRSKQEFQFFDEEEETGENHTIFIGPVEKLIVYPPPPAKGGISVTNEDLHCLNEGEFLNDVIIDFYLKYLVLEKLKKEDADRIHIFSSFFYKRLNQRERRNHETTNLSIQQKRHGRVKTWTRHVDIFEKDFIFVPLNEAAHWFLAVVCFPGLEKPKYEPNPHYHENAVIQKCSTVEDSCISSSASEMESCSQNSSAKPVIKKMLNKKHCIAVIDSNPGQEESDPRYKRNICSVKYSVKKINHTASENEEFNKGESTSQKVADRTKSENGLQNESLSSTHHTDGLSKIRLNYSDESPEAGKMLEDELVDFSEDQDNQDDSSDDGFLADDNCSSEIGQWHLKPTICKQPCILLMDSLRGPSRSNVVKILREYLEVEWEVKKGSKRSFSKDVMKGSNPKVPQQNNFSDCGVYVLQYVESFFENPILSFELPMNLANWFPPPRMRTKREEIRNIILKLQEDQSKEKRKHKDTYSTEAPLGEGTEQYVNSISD

[3] = target: T6, Sentrin-specific protease 8 (Homo sapiens, UniProt Q96LD8); format: functional;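 also: luminescence read-out of SENP8 inhibition, dose-response confirmation following an ultra-high-throughput screen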
T6 sequence (Q96LD8 whole entry): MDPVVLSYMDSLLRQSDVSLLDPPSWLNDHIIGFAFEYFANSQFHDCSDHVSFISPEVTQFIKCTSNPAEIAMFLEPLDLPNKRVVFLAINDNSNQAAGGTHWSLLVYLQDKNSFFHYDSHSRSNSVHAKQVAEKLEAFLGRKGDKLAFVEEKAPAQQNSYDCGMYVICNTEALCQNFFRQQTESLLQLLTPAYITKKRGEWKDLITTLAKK

Cannabinoid receptor 2 [4] = target: T7, Cannabinoid receptor 2 (Homo sapiens, UniProt P34972); assay: SAR analysis of antagonists of the Cannabinoid Receptor 2 using an Image-Based Assay - Set 2. [Related pubchem assays (depositor defined):AID1961, AID1965]; format: functional
[5] = target: G-protein coupled receptor 55 (Homo sapiens, UniProt Q9Y2T6); assay: SAR analysis of selective Agonists of GPR55 using an Image-Based Assay - Set 2. [Related pubchem assays (depositor defined):AID1961, AID1965]; format: functional
Cannabinoid receptor 2 [6] = target: T7, Cannabinoid receptor 2; assay: SAR analysis of agonists of the Cannabinoid Receptor 2 using an Image-Based Assay - Set 2. [Related pubchem assays (depositor defined):AID1961, AID1965]; format: functional
[7] = target: T8, G-protein coupled receptor 35 (Homo sapiens, UniProt Q9HC97); assay: SAR analysis of Agonists of the GPR35 Receptor using an Image-Based Assay - Set 3. [Related pubchem assays (depositor defined):AID1961, AID1965]; format: functional
Cannabinoid receptor 1 [8] = target: T9, Cannabinoid receptor 1 (Homo sapiens, UniProt P21554); assay: SAR analysis of antagonists of the Cannabinoid Receptor 1 using an Image-Based Assay - Set 3. [Related pubchem assays (depositor defined):AID1961, AID1965]; format: functional
Cannabinoid receptor 1 [9] = target: T9, Cannabinoid receptor 1; assay: SAR analysis of agonists of the Cannabinoid Receptor 1 using an Image-Based Assay - Set 3. [Related pubchem assays (depositor defined):AID1961, AID1965]; format: functional
[10] = target: T8, G-protein coupled receptor 35; assay: SAR analysis of Antagonists of the GPR35 Receptor using an Image-Based Assay - Set 4. [Related pubchem assays (depositor defined):[…]]; format: functional
Tumor necrosis factor = Tumor necrosis factor (Homo sapiens, UniProt P01375); assay: analog potency on TNFa NF-kB signaling – cell-based, revised, SAR follow-up (AID 2337); format: functional
HEK293 = assay: cells; settings: Homo sapiens;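 also: cells exposed to compound for 14 hours overnight before viability readout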
[11] = target: T10, Voltage-gated N-type calcium channel alpha-1B subunit/Amyloid beta A4 precursor protein-binding family A member 1 (Homo sapiens, UniProt Q00975+Q02410); format: protein assay
NS3 = NS3 (Hepatitis C virus, UniProt A3EZJ3); assay: PubChem AID 2173; design: species or system Hepacivirus hominis
[12] = target: T10, Voltage-gated N-type calcium channel alpha-1B subunit/Amyloid beta A4 precursor protein-binding family A member 1; format: protein assay; remark: listed apart in the source

T8 sequence (Q9HC97 whole entry): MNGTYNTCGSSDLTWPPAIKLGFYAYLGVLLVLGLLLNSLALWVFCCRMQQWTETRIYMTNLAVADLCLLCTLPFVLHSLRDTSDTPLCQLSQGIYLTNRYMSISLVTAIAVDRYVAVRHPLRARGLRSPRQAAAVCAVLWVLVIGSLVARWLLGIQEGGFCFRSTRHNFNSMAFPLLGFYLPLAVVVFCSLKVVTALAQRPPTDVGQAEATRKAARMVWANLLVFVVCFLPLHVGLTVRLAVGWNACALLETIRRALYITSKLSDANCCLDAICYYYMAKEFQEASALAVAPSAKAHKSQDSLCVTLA
T9 sequence (P21554 whole entry): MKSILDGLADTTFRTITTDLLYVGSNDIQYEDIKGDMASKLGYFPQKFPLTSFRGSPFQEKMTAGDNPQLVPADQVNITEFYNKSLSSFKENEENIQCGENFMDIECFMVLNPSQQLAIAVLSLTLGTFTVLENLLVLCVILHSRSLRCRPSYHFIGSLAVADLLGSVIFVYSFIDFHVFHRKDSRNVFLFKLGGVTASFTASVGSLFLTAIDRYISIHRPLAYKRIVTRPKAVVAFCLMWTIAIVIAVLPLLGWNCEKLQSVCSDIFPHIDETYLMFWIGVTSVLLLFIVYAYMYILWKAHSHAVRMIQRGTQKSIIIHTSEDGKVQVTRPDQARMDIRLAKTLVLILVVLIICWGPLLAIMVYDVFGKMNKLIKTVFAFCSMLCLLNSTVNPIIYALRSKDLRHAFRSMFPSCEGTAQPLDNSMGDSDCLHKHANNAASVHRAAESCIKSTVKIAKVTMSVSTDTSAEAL
T7 sequence (P34972 whole entry): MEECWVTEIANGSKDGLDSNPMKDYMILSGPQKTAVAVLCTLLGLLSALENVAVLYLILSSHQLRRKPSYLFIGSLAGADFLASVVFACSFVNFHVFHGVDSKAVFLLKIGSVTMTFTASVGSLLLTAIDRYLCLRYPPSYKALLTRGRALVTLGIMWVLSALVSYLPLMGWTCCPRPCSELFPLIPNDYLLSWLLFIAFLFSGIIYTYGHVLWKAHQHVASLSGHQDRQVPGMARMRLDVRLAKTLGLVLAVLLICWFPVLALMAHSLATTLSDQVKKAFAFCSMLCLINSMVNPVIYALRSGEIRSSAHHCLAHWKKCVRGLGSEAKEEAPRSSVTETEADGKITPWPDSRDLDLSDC
CAAX prenyl protease 1, sequence (P47154 whole entry): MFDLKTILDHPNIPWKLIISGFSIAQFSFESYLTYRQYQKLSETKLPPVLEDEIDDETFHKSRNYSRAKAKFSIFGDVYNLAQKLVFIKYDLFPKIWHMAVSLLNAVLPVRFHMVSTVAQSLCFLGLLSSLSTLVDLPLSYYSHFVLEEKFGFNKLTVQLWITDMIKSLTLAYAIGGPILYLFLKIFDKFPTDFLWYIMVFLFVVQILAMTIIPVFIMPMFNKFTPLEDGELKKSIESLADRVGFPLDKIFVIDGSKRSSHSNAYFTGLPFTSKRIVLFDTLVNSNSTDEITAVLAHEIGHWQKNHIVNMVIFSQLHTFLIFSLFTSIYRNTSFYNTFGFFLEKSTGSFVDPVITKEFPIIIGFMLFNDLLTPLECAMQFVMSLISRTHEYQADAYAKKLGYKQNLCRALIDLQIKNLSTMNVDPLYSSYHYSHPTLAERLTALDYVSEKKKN
G-protein coupled receptor 55, sequence (Q9Y2T6 whole entry): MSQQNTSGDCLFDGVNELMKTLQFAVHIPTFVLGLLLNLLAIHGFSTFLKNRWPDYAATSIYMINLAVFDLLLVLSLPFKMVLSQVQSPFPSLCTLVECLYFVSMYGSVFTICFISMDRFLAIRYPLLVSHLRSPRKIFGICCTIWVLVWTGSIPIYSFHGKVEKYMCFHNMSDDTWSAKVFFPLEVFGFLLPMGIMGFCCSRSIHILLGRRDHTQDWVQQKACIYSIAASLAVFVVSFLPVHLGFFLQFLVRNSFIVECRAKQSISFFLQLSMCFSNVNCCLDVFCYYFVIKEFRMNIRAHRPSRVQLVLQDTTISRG
Trypsin, sequence (P00761 whole entry): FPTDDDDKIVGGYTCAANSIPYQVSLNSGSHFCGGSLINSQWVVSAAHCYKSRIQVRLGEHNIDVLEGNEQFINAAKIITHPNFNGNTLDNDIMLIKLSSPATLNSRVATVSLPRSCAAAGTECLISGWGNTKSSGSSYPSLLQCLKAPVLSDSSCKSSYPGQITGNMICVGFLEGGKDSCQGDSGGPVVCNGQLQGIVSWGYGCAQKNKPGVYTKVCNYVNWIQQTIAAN
Large T antigen, sequence (P03070 whole entry): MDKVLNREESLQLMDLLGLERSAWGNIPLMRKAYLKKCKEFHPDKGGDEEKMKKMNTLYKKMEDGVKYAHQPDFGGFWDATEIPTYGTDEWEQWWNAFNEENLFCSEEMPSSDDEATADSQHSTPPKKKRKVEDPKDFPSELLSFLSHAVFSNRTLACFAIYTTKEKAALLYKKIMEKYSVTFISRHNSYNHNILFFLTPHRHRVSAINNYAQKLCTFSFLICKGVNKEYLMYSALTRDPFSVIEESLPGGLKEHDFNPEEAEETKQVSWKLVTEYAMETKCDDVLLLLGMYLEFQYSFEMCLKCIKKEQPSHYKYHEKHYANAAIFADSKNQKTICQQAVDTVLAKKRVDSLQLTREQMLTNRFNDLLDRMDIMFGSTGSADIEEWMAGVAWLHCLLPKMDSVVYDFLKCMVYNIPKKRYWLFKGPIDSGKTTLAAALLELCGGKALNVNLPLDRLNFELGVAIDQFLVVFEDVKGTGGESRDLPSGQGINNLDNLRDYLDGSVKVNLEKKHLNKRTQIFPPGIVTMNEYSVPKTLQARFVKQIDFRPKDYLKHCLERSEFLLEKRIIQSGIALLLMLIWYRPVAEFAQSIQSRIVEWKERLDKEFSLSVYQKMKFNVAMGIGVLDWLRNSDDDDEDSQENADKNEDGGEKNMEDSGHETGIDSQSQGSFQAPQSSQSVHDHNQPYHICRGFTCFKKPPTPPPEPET
Kallikrein-7, sequence (P49862 whole entry): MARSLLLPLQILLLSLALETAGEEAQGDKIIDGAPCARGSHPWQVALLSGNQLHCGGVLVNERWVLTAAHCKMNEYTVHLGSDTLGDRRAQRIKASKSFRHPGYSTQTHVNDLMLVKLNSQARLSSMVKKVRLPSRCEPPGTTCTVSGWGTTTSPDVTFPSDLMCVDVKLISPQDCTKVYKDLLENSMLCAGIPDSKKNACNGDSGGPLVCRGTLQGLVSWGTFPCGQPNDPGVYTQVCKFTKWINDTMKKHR
Ion channel NompC, sequence (Q7T1G6 whole entry): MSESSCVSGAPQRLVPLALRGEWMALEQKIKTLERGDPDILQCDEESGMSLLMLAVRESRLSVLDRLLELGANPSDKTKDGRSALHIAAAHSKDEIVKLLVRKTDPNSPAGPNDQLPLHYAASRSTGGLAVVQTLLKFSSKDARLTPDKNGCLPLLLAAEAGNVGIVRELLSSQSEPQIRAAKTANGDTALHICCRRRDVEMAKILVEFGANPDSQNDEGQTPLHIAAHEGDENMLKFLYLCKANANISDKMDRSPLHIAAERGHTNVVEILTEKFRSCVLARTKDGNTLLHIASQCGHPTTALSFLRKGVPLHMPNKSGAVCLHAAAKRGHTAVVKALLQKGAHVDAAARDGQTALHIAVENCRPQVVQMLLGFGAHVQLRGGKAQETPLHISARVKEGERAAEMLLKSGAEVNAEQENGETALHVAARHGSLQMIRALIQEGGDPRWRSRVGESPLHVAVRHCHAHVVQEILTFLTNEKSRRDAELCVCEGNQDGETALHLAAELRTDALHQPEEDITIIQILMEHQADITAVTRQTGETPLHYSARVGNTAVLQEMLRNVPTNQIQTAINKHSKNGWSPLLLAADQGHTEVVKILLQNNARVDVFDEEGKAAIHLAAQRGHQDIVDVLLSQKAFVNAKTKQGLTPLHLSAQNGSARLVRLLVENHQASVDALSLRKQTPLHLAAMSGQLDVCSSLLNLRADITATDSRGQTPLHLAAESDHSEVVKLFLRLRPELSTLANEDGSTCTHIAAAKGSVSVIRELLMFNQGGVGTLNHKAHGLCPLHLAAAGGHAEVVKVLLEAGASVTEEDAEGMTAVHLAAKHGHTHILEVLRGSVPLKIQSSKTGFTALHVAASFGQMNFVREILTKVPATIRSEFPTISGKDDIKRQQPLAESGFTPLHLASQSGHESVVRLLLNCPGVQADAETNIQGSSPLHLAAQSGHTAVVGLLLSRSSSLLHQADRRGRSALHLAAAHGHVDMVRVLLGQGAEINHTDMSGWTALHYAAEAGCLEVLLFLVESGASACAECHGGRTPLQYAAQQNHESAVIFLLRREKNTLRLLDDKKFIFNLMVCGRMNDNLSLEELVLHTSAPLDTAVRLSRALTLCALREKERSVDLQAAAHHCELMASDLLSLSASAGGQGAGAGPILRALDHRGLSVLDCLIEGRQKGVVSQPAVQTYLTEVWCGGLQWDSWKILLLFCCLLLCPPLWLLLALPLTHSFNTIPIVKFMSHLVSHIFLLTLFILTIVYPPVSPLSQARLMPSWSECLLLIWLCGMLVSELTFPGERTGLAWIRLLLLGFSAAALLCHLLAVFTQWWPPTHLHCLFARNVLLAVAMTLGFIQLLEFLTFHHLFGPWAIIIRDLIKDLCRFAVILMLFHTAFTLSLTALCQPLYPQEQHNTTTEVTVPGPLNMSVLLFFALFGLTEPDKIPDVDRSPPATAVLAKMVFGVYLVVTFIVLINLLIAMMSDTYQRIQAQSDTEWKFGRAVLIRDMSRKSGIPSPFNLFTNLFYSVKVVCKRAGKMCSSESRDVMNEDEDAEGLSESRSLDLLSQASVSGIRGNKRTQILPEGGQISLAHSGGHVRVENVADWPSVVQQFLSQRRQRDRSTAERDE
Tumor necrosis factor, sequence (P01375 whole entry): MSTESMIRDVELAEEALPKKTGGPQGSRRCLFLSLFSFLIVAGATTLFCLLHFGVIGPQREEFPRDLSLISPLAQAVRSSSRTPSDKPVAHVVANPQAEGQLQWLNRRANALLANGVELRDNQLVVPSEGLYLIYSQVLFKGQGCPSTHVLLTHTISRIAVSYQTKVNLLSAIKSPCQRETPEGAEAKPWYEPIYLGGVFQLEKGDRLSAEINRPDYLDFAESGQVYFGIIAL

CCC(C)NC(=O)c1cc2c(=O)n3cccc(C)c3nc2s1 (stereo not drawn)
AC50 (Trypsin): 28.5 µM (active) | AC50 (CAAX prenyl protease 1): 1.72 µM (active) | AC50 (CAAX prenyl protease 2): 6.01 µM (active) | EC50 (Kallikrein-7): > 69.6 µM (inactive)

Cc1ccc(NS(=O)(=O)c2ccc(C(=O)OCC(=O)Nc3cc(C)on3)cc2)cc1
EC50 (Ion channel NompC): > 29.9 µM (inactive) | EC50 (Mucolipin-3): > 29.9 µM (not active)

Oc1ccc(-c2nc3ccccn3c2NCc2ccco2)cc1
IC50 (Large T antigen): 11.4 µM (active) | AC50 (Trypsin): 10.8 µM (active) | IC50 (Caspase-3): 17.6 µM (active) | IC50 [1]: 16 µM (active) | IC50 [2]: 54.4 µM (active) | IC50 [3]: 81.9 µM (active) | AC50 (CAAX prenyl protease 1): 4.39 µM (active) | AC50 (CAAX prenyl protease 2): 6.52 µM (active)

CCOc1ccc(S(=O)(=O)N2CCOCC2)cc1NC(=O)c1ccc(N2CCCC2=O)cc1
IC50 (Cannabinoid receptor 2 [4]): > 32 µM (inactive) | EC50 [5]: > 32 µM (inactive) | EC50 (Cannabinoid receptor 2 [6]): > 32 µM (inactive) | EC50 [7]: > 32 µM (inactive) | IC50 (Cannabinoid receptor 1 [8]): 4.98 µM (active) | EC50 (Cannabinoid receptor 1 [9]): > 32 µM (inactive) | IC50 [10]: > 32 µM (inactive)

CC(=O)N1CCc2cc(S(=O)(=O)N3CCN(c4ccc([N+](=O)[O-])cc4)CC3)ccc21
IC50 (Tumor necrosis factor): > 20 µM (inactive) | IC50 (HEK293): > 20 µM (inactive)

O=C(Nc1cc(S(=O)(=O)N2CCOCC2)ccc1OCC(F)(F)F)c1ccc(N2CCCC2=O)cc1
IC50 (Cannabinoid receptor 2 [4]): > 32 µM (inactive) | EC50 [5]: > 32 µM (inactive) | EC50 (Cannabinoid receptor 2 [6]): > 32 µM (inactive) | EC50 [7]: > 32 µM (inactive) | IC50 (Cannabinoid receptor 1 [8]): > 32 µM (inactive) | EC50 (Cannabinoid receptor 1 [9]): > 32 µM (inactive) | IC50 [10]: > 32 µM (inactive)

Cc1ccc(C2CC(=O)N3CN(c4ccc(Br)cc4)CSC3=C2C#N)o1 (stereo not drawn)
IC50 [11]: 9.58 µM (active) | IC50 (NS3): 7.09 µM (active) | IC50 [12]: 14 µM (active)
